This is an account of results in patent publication US20230210853A1 (Halia Therapeutics, Inc., priority 2020, published 2023).

T1 sequence (Q8TDX7 whole entry): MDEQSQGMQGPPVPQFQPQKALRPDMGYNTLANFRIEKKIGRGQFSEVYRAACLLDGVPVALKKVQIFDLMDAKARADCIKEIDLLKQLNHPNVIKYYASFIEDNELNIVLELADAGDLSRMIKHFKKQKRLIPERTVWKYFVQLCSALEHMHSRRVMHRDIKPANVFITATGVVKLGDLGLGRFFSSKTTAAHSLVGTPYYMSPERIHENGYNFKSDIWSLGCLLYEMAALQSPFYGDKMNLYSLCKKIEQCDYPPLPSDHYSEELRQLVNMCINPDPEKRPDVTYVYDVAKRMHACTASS

This experiment concerns the target T1, full-length recombinant human NEK7 (Homo sapiens, UniProt Q8TDX7).
T1 construct: full-length recombinant human NEK7; GST (N); purchased SignalChem N09-10G; host or cells: Sf9 insect cells (baculovirus)
The experiment can be described thus: NEK7 enzymatic assay ([33P]-ATP, casein substrate). The format is biochemical. As to conditions: Table 2e; recombinant human NEK7, casein substrate. Put shortly:
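Serially diluted compounds (10 μM down to 0.5 nM, 3-fold) were preincubated 20 min at room temperature with N-terminal GST-NEK7 from Sf9 cells and casein in pH 7.5 Hepes/MgCl2/EGTA/Brij35/DTT buffer containing 1% DMSO. [33P]-ATP then started a 2 h room-temperature reaction, stopped by spotting onto P81 paper. IC50 came from percent activity remaining versus vehicle.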
With `CN1CCN(c2ccc(NC(=O)Nc3ccc(Oc4ccnc5[nH]cc(Cl)c45)cc3F)cc2C(F)(F)F)CC1` [Ie-14, 1-(4-((3-chloro-1H-pyrrolo[2,3-b]pyridin-4-yl)oxy)-2-fluorophenyl)-3-(4-(4-methylpiperazin-1-yl)-3-(trifluoromethyl)phenyl)urea], the IC50 was > 1500 nM. `CN1CCN(C(=O)c2ccc(NC(=O)Nc3ccc(Oc4ccnc5[nH]cc(Cl)c45)cc3F)cc2C(F)(F)F)CC1` [Ie-15, 1-(4-((3-chloro-1H-pyrrolo[2,3-b]pyridin-4-yl)oxy)-2-fluorophenyl)-3-(4-(4-methylpiperazine-1-carbonyl)-3-(trifluoromethyl)phenyl)urea]: the IC50 was > 1500 nM. Next, `CN1CCCN(Cc2ccc(NC(=O)Nc3ccc(Oc4ccnc5[nH]cc(Cl)c45)cc3F)cc2C(F)(F)F)CC1` [Ie-17, 1-(4-((3-chloro-1H-pyrrolo[2,3-b]pyridin-4-yl)oxy)-2-fluorophenyl)-3-(4-((4-methyl-1,4-diazepan-1-yl)methyl)-3-(trifluoromethyl)phenyl)urea]: > 1500 nM; `CN1C[C@@H]2CN(Cc3ccc(NC(=O)Nc4ccc(Oc5ccnc6[nH]cc(Cl)c56)cc4F)cc3C(F)(F)F)C[C@@H]2C1` [Ie-18, 1-(4-((3-chloro-1H-pyrrolo[2,3-b]pyridin-4-yl)oxy)-2-fluorophenyl)-3-(4-(((3aR,6aS)-5-methylhexahydropyrrolo[3,4-c]pyrrol-2(1H)-yl)methyl)-3-(trifluoromethyl)phenyl)urea]: > 1500 nM. Regarding `CN1CCC(Cc2ccc(NC(=O)Nc3ccc(Oc4ccnc5[nH]cc(Cl)c45)cc3F)cc2C(F)(F)F)CC1` [Ie-19, 1-(4-((3-chloro-1H-pyrrolo[2,3-H]pyridin-4-yl)oxy)-2-fluorophenyl)-3-(4-((1-methylpiperidin-4-yl)methyl)-3-(trifluoromethyl)phenyl)urea], the IC50 is 501 to 1500 nM. Take `CN(C)C1CCN(Cc2ccc(NC(=O)Nc3ccc(Oc4ccnc5[nH]cc(Cl)c45)cc3F)cc2C(F)(F)F)C1` (centres unmarked) [Ie-21, 1-(4-((3-chloro-1H-pyrrolo[2,3-b]pyridin-4-yl)oxy)-2-fluorophenyl)-3-(4-((3-(dimethylamino)pyrrolidin-1-yl)methyl)-3-(trifluoromethyl)phenyl)urea]: the IC50 is > 1500 nM. In the case of `CN1CCN(Cc2ccc(NC(=O)Nc3ccc(Oc4ccnc5[nH]cc(Cl)c45)cc3F)cc2C(F)F)CC1` [Ie-22, 1-(4-((3-chloro-1H-pyrrolo[2,3-b]pyridin-4-yl)oxy)-2-fluorophenyl)-3-(3-(difluoromethyl)-4-((4-methylpiperazin-1-yl)methyl)phenyl)urea], the IC50 fell in the range of 501 to 1500 nM. For the molecule `CCN1CCN(Cc2ccc(NC(=O)Nc3ccc(Oc4ccnc5[nH]cc(Cl)c45)cc3F)cc2C(F)F)CC1` [Ie-23, 1-(4-((3-chloro-1-pyrrolo[2,3-b]pyridin-4-yl)oxy)-2-fluorophenyl)-3-(3-(difluoromethyl)-4-((4-ethylpiperazin-1-yl)methyl)phenyl)urea], the IC50 was 501 to 1500 nM. For the molecule `Cc1cn(-c2ccc(NC(=O)Nc3ccc(Oc4ccnc5[nH]cc(Cl)c45)cc3F)cc2C(F)(F)F)cn1` [Ie-24, 1-(4-((3-chloro-1H-pyrrolo[2,3-b]pyridin-4-yl)oxy)-2-fluorophenyl)-3-(4-(4-methyl-1H-imidazol-1-yl)-3-(trifluoromethyl)phenyl)urea], the IC50 fell in the range of 301 to 500 nM. For the molecule `CN1CCN(Cc2ccc(NC(=O)Nc3ccc(Oc4ccnc5[nH]c(Cl)c(Cl)c45)cc3F)cc2C(F)(F)F)CC1` [Ie-25, 1-(4-((2,3-dichloro-1H-pyrrolo[2,3-b]pyridin-4-yl)oxy)-2-fluorophenyl)-3-(4-((4-methylpiperazin-1-yl)methyl)-3-(trifluoromethyl)phenyl)urea], the IC50 was 301 to 500 nM. Under `Cc1cc(Oc2ccnc3[nH]cc(Cl)c23)ccc1NC(=O)Nc1ccc(CN2CCN(C)CC2)c(C(F)(F)F)c1` [Ie-29] stands > 1500 nM; under `Cc1cc(Oc2ccnc3[nH]c(Cl)c(Cl)c23)ccc1NC(=O)Nc1ccc(CN2CCN(C)CC2)c(C(F)(F)F)c1` [Ie-30, 1-(4-((2,3-dichloro-1H-pyrrolo[2,3-b]pyridin-4-yl)oxy)-2-methylphenyl)-3-(4-((4-methylpiperazin-1-yl)methyl)-3-(trifluoromethyl)phenyl)urea], > 1500 nM; under `O=C(Nc1ccc(CN2CCC2)c(C(F)(F)F)c1)Nc1ccc(Oc2ccnc3[nH]cc(Cl)c23)cc1F` [Ie-31, 1-(4-(azetidin-1-ylmethyl)-3-(trifluoromethyl)phenyl)-3-(4-((3-chloro-1H-pyrrolo[2,3-b]pyridin-4-yl)oxy)-2-fluorophenyl)urea], > 1500 nM. `O=C(Nc1ccc(CN2CC(F)(F)C2)c(C(F)(F)F)c1)Nc1ccc(Oc2ccnc3[nH]cc(Cl)c23)cc1F` [Ie-32, 1-(4-((3-chloro-1H-pyrrolo[2,3-b]pyridin-4-yl)oxy)-2-fluorophenyl)-3-(4-((3,3-difluoroazetidin-1-yl)methyl)-3-(trifluoromethyl)phenyl)urea]: the IC50 is > 1500 nM. As to `CN1C[C@H]2CC[C@@H](C1)N2Cc1ccc(NC(=O)Nc2ccc(Oc3ccnc4[nH]cc(Cl)c34)cc2F)cc1C(F)(F)F` [Ie-33, 1-(4-((3-chloro-1H-pyrrolo[2,3-b]pyridin-4-yl)oxy)-2-fluorophenyl)-3-(4-(((1R,5S)-3-methyl-3,8-diazabicyclo[3.2.1]octan-8-yl)methyl)-3-(trifluoromethyl)phenyl)urea], the IC50 is > 1500 nM. Next, `CN1CC2CCC1CN2Cc1ccc(NC(=O)Nc2ccc(Oc3ccnc4[nH]cc(Cl)c34)cc2F)cc1C(F)(F)F` (centres unmarked) [Ie-35, 1-(4-((3-chloro-1H-pyrrolo[2,3-b]pyridin-4-yl)oxy)-2-fluorophenyl)-3-(4-((5-methyl-2,5-diazabicyclo[2.2.2]octan-2-yl)methyl)-3-(trifluoromethyl)phenyl)urea]: > 1500 nM.

As to `COc1cc(CN2CCN(C)CC2)ccc1NC(=O)Nc1ccc(Oc2ccnc3[nH]cc(Cl)c23)cc1F` [Ie-40, 1-(4-((3-chloro-1H-pyrrolo[2,3-b]pyridin-4-yl)oxy)-2-fluorophenyl)-3-(2-methoxy-4-((4-methylpiperazin-1-yl)methyl)phenyl)urea], the IC50 was > 1500 nM. `O=C(Nc1ccc(CN2CCN(CCO)CC2)c(C(F)(F)F)c1)Nc1ccc(Oc2ccnc3[nH]cc(Cl)c23)cc1F` [Ie-41, 1-(4-((3-chloro-1H-pyrrolo[2,3-b]pyridin-4-yl)oxy)-2-fluorophenyl)-3-(4-((4-(2-hydroxyethyl)piperazin-1-yl)methyl)-3-(trifluoromethyl)phenyl)urea]: the IC50 was > 1500 nM. Under `COCCN1CCN(Cc2ccc(NC(=O)Nc3ccc(Oc4ccnc5[nH]cc(Cl)c45)cc3F)cc2C(F)(F)F)CC1` [Ie-42, 1-(4-((3-chloro-1H-pyrrolo[2,3-b]pyridin-4-yl)oxy)-2-fluorophenyl)-3-(4-((4-(2-methoxyethyl)piperazin-1-yl)methyl)-3-(trifluoromethyl)phenyl)urea] stands > 1500 nM; under `COc1cc(NC(=O)Nc2ccc(Oc3ccnc4[nH]cc(Cl)c34)cc2F)ccc1CN1CCN(C)CC1` [Ie-43, 1-(4-((3-chloro-1H-pyrrolo[2,3-b]pyridin-4-yl)oxy)-2-fluorophenyl)-3-(3-methoxy-4-((4-methylpiperazin-1-yl)methyl)phenyl)urea], > 1500 nM.

Broadly, the IC50 is the point on the concentration scale where inhibition reaches its midpoint.
